Source: patent publication US11882828B2, “Mosquito vector control compositions, methods and products utilizing same” (priority 2015, dated 2024)

Experiments:
[1] = system: Anopheles stephensi (Indian malaria mosquito); test: whole plant or invertebrate; details: Anopheles stephensi
Experimental: […] Once the deposits were dry, five non-blood fed adult female Anopheles stephensi (between two to five days old) were added to each well, and sustained with a 10% sucrose solution in a cotton wool plug. Assessment of the knockdown after 1 hour, and mortality after 48 hours was carried out.
In case of multiple tests, the mean value is reported.

[2] = system: An. Gambiae Tiassalé; test: Example B5: bottle based cross resistance study (CDC bottle assay); type: in vivo
Experimental: (§1) Based on the “CDC bottle assay” (described at http://www.cdc.gov/malaria/resources/pdf/fsp/ir_manual/ir_cdc_bioassay_en.pdf) 1 ml of ethanol containing a test compound at a defined concentration was added to a 250 ml glass bottle and the bottles were placed on a rolling table to coat the inner surfaces as the solvent evaporated. Once dry, twenty five non-blood fed adult female mosquitoes of the appropriate species and strains (each three day old) were aspirated from the stock culture and gently blown into the exposure bottles. The lid of the bottle was replaced and the bottle placed upright out of direct sun light under standard culture conditions, nominally 28C and 60-80% relative humidity.
(§2) A stopwatch was started, and the assessment of the knock-down were made after 15 minutes and 60 minutes. A mosquito was said to be knocked down if it was unable to stand, following the CDC definition. The bottles were replaced in an upright position when not being assessed.
(§3) After one hour the mosquitoes were carefully removed from the bottle with an aspirator and placed in a recovery cup. The mosquitoes were supplied with a 10% sucrose solution on a cotton wool bung, and stored under culture conditions. Assessments of the mortality were made after 24 hours.
(§4) Each treatment was replicated a minimum of four times, with the mean knockdown or mortality recorded. In each study, a set of bottles was infested with a known insecticide susceptible strain of mosquitoes from the same genera as the resistant strains.

[3] = system: VK7; test: as above; type: in vivo; details: Anopheles coluzzii, 24 h, Table B5c, after 24 hours
Experimental: as §1, §2, §3, §4

[4] = system: An. Gambiae Kisumu sus; test: as above; type: in vivo; details: Kisumu sus
Experimental: as §1, §2, §3, §4

[5] = system: FUMOZ; test: as above; type: in vivo; details: Anopheles funestus, 24 h, Table B5c; 25 ppm; after 24 hours; FUMOZ
Experimental: as §1, §2, §3, §4

[6] = system: An. stephensi; test: as above; type: in vivo
Experimental: as §1, §2, §3, §4

[7] = system: Anopheles stephensi; test: Example B7: evaluation of insecticide impregnated polymer surfaces; type: in vivo; details: AI content 2 wt %; for mortality: 24 hours after exposure; for knock-down: after one hour
How it was run: (§5)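 Methoxyacrylates were melt-blended into LDPE, HDPE or PP and moulded into sheets about 0.1 mm thick. Ten 3–5-day-old non-blood-fed adult females were held 24 h on 10% sucrose, then confined in a Petri dish under the treated sheet for 1 h. Knockdown was scored at 1 h and mortality 24 h after exposure.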

[8] = system: Aedes aegypti; test: as above; type: in vivo; details: AI content 2 wt %, polymer 4 to 6 weeks old; for mortality: 24 hours after exposure; for knock-down: after one hour
How it was run: as §5

[9] = system: An. Gambiae Tiassalé; test: Example B4: cross resistance study, 6-well plate; type: in vivo
Experimental: (§6) In each study, a set of plates were infested with a known insecticide susceptible strain of mosquitoes from the same genera as the resistant strains.
(§7) Assessment of the knockdown after 60 minutes and mortality after 24 hours was carried out. Each treatment was replicated a minimum of four times, with the mean knockdown or mortality recorded.
(§8) A comparison of the knockdown and mortality of the resistant strain of mosquitoes was made to that of the susceptible to identify evidence of cross resistance.

[10] = system: An. Arabiensis Moz sus; test: Example B4: cross resistance study, 6-well plate; type: in vivo
Experimental: as §6, §7, §8

[11] = system: Ae. aegypti Caymon; test: Example B4: cross resistance study, 6-well plate; type: in vivo
Experimental: as §6, §7, §8

[12] = system: An. Gambiae Kisumu sus; test: Example B4: cross resistance study, 6-well plate; type: in vivo
Experimental: as §6, §7, §8

[13] = system: An. Gambiae Kisumu rdl; test: Example B4: cross resistance study, 6-well plate; type: in vivo
Experimental: as §6, §7, §8

[14] = system: An. stephensi; test: Example B4: cross resistance study, 6-well plate; type: in vivo
Experimental: as §6, §7, §8

[15] = system: Ae. Aegypti New Orleans; test: Example B4: cross resistance study, 6-well plate; type: in vivo
Experimental: as §6, §7, §8

**Q.** `CO/C=C(/C(=O)OC)c1ccccc1Oc1nc(C(C)(C)C)ns1` [Compound 7, Methyl (E)-2-[2-[(3-tert-butyl-1,2,4-thiadiazol-5-yl)oxy]phenyl]-3-methoxy-prop-2-enoate] was tested. Which pest or weed control at 20 ppm ([1]; 1 h, read-out: Knockdown) did it give?
**A.** The pest or weed control at 20 ppm was 67%.

**Q.** What about the mortality at 20 ppm ([1]; 48 h) of the same molecule?
**A.** Its mortality at 20 ppm is 100%.

**Q.** What about the “Knockdown (%) at 15 mins” value ([2]; 20 ppm, bottle, Tiassalé) of the same molecule?
**A.** Its value is 70%.

**Q.** And the “Knockdown (%) at 60 mins” value ([2]; 20 ppm, bottle, Tiassalé)?
**A.** Its value is 97%.

**Q.** What about the mortality at 20 ppm ([2]; Anopheles gambiae) of the same molecule?
**A.** Its mortality at 20 ppm is 95%.

**Q.** What about the mortality at 25 ppm [3] of the same molecule?
**A.** Its mortality at 25 ppm is 19%.

**Q.** What about the “Knockdown (%) at 15 mins” value ([4]; 20 ppm, bottle) of the same molecule?
**A.** Its value is 100%.

**Q.** And the “Knockdown (%) at 60 mins” value ([4]; 20 ppm, bottle)?
**A.** Its value is 100%.

**Q.** And the mortality at 20 ppm ([4]; Anopheles gambiae, 20 ppm, bottle, one hour exposure, after 24 hours)?
**A.** The mortality at 20 ppm was 99%.

**Q.** And the mortality at 25 ppm ([4]; Anopheles gambiae, 24 h, Table B5c, 25 ppm, after 24 hours)?
**A.** Its mortality at 25 ppm is 97%.

**Q.** And the mortality at 25 ppm [5]?
**A.** Its mortality at 25 ppm is 20%.

**Q.** What about the “Knockdown (%) at 15 mins” value ([6]; 20 ppm, bottle, An. stephensi) of the same molecule?
**A.** The value was 37%.

**Q.** And the “Knockdown (%) at 60 mins” value ([6]; 20 ppm, bottle, An. stephensi)?
**A.** Its value is 100%.

**Q.** And the mortality at 20 ppm ([6]; Anopheles stephensi)?
**A.** The mortality at 20 ppm was 100%.

**Q.** What about the mortality ([7]; HDPE, polymer 4 to 6 weeks old) of the same molecule?
**A.** The mortality was 87%.

**Q.** What about the knock-down ([7]; HDPE, polymer 4 to 6 weeks old) of the same molecule?
**A.** Its knock-down is 93%.

**Q.** What about the mortality ([7]; HDPE, polymer 6 to 8 weeks old) of the same molecule?
**A.** Its mortality is 87%.

**Q.** And the knock-down ([7]; HDPE, polymer 6 to 8 weeks old)?
**A.** Its knock-down is 100%.

**Q.** What about the mortality ([7]; LDPE, polymer 4 to 6 weeks old) of the same molecule?
**A.** Its mortality is 97%.

**Q.** And the knock-down ([7]; LDPE, polymer 4 to 6 weeks old)?
**A.** The knock-down was 100%.

**Q.** What about the mortality ([7]; LDPE, polymer 6 to 8 weeks old) of the same molecule?
**A.** Its mortality is 100%.

**Q.** And the knock-down ([7]; LDPE, polymer 6 to 8 weeks old)?
**A.** The knock-down was 87%.

**Q.** What about the mortality ([7]; PP, polymer 4 to 6 weeks old) of the same molecule?
**A.** The mortality was 87%.

**Q.** And the knock-down ([7]; PP, polymer 4 to 6 weeks old)?
**A.** Its knock-down is 93%.

**Q.** And the mortality ([7]; PP, polymer 6 to 8 weeks old)?
**A.** Its mortality is 77%.

**Q.** And the knock-down ([7]; PP, polymer 6 to 8 weeks old)?
**A.** The knock-down was 100%.

**Q.** What about the mortality ([8]; HDPE) of the same molecule?
**A.** Its mortality is 47%.

**Q.** And the knock-down ([8]; HDPE)?
**A.** Its knock-down is 83%.

**Q.** What about the mortality ([8]; LDPE) of the same molecule?
**A.** The mortality was 97%.

**Q.** What about the knock-down ([8]; LDPE) of the same molecule?
**A.** The knock-down was 100%.

**Q.** And the mortality ([8]; PP)?
**A.** The mortality was 23%.

**Q.** What about the knock-down ([8]; PP) of the same molecule?
**A.** Its knock-down is 67%.

**Q.** And the Knockdown ([9]; 2.50 ppm, after 60 minutes, Tiassalé)?
**A.** Its Knockdown is 90%.

**Q.** And the mortality at 2.5 ppm ([9]; Anopheles gambiae, 24 h)?
**A.** Its mortality at 2.5 ppm is 85%.

**Q.** And the Knockdown ([10]; 2.50 ppm, after 60 minutes, Moz sus)?
**A.** Its Knockdown is 95%.

**Q.** What about the mortality at 2.5 ppm ([10]; Anopheles arabiensis, 24 h) of the same molecule?
**A.** Its mortality at 2.5 ppm is 100%.

**Q.** And the Knockdown ([11]; 2.50 ppm, after 60 minutes, Caymon)?
**A.** The Knockdown was 52%.

**Q.** And the mortality at 2.5 ppm ([11]; Aedes aegypti, 24 h)?
**A.** Its mortality at 2.5 ppm is 28%.

**Q.** And the Knockdown ([12]; 2.50 ppm, after 60 minutes, Kisumu sus)?
**A.** The Knockdown was 100%.

**Q.** And the mortality at 2.5 ppm ([12]; Anopheles gambiae, 24 h)?
**A.** The mortality at 2.5 ppm was 100%.

**Q.** What about the Knockdown ([13]; 2.50 ppm, after 60 minutes, Kisumu rdl) of the same molecule?
**A.** The Knockdown was 90%.

**Q.** And the mortality at 2.5 ppm ([13]; Anopheles gambiae, 24 h)?
**A.** The mortality at 2.5 ppm was 100%.

**Q.** And the Knockdown ([14]; 2.50 ppm, after 60 minutes, An. stephensi)?
**A.** The Knockdown was 40%.

**Q.** And the mortality at 2.5 ppm ([14]; Anopheles stephensi, 24 h)?
**A.** Its mortality at 2.5 ppm is 100%.

**Q.** What about the Knockdown ([15]; 2.50 ppm, after 60 minutes, New Orleans) of the same molecule?
**A.** Its Knockdown is 38%.

**Q.** And the mortality at 2.5 ppm ([15]; Aedes aegypti, 24 h)?
**A.** The mortality at 2.5 ppm was 100%.
